Laboratory results reported in patent publication US20060247266A1, “Nitrogen-containing tricyclic compounds” (Asahi Kasei Pharma Corporation, priority 2004, published 2006).

Assays:
[1] = test system: OVA-induced respiratory tract inflammation; experiment: Chronic respiratory tract inflammation suppressing action (Test Example 7); format: in vivo, BALB/c female mice; conditions: administration by infusion pump once a day for 5 days
Method: According to Henderson, W. R., et al., Am. J. Respir. Cric. Care Med., 165(1), 108-116 (2002), suppressing action on bronchial inflammation was confirmed. BALB/c female mice (7-week old) were used for the test, which were grouped into a negative control group, a positive control group, and a drug administration group. The mice of each group were intraperitoneally administered with ovalbumin (OVA, 100 ng, Sigma) and 1 mg of aluminum hydroxide for initial immunization, and after 2 weeks, they are subcutaneously administered with 10 μg of OVA as additional immunization. In the following experiments, test compounds are used as a solution obtained by dissolving each compound in water containing 0.5% carboxymethylcellulose. […]
Twenty four hours after the final OVA inhalation or inhalation of physiological saline, pulmonary cavities of the test animals were washed with physiological saline containing 1% BSA, and the total infiltrated white blood cells (WBC) were counted. […]
Twenty four hours after the final drug administration, pulmonary cavities of the test animals were washed with physiological saline, and the total infiltrated white blood cells (WBC) were counted.

thoracic aorta = experiment: Vasoconstriction inhibitory action (Test Example 2); design: species or system Rats (Wistar); conditions: aorta constricted with phenylephrine (1 μM), test compound (1 μM)
From the text: Rats (Wistar, 11-week old) were bleeded to death and laparotomized to take out the thoracic aorta. That aorta was cut into a ring of a length of about 3 mm in a conventional manner (Asano, T., et al., J. Pharmacol. Exp. Ther., 241, pp. 1033-1040 (1987)) and hung in 10-ml organ bath filled with Krebs-Hensright nutrient solution bubbled with a mixed gas of 95% O2 and 5% CO2. One end of the blood vessel was connected to an isometric transducer (FD Pickup TB-912T, Nihon Kohden) and applied with 2.5 g of resting tension, and constriction and relaxation reactions of the aorta were recorded.
The aorta was constricted with phenylephrine (1 μM, Sigma) and then added with a test compound (1 μM), and the vasoconstriction inhibitory action thereof was observed. The vasoconstriction inhibitory actions of the test compounds were calculated as relaxation ratios, which were based on the vasoconstriction with phenylephrine observed immediately before the addition of the test compounds taken as 100%.

[2] = test system: lipopolysaccharide-induced inflammation; experiment: Acute respiratory tract inflammation suppressing action (Test Example 8); format: in vivo, BALB/c female mice; conditions: LPS inhalation; for acute respiratory tract inflammation, total infiltrated leucocyte number (WBC): test compound by infusion pump; for acute respiratory tract inflammation, total infiltrated leucocyte (WBC) number: test compound by nebulizer inhalation over 10 minutes
From the text: According to Gonzales de Moraes, V L., et al., Br. J. Pharmacol., 123, pp. 631-6, 1998, suppressing action on pulmonary inflammation was studied. BALB/c female mice (7-week old) were used for the test, as the compound administration group and positive control group, each consisting of 7 mice, as well as the negative control group consisting of 5 mice. For induction of inflammation, a 0.03% physiological saline solution of a lipopolysaccharide (LPS, a mixture derived from Escherichia coli O55 and B5 strains, Sigma) was used. A test compound was dissolved in physiological saline to prepare solutions of various concentrations. […] Then, 1 minute after the completion of the inhalation of the lipopolysaccharide solution, the animals were administered with a solution of test compound at various concentrations over 10 minutes by inhalation using the aforementioned nebulizer. The mice of the positive control group were administered with the same volume of physiological saline instead of the test compound solution over 10 minutes by inhalation. The mice of the negative control group were inhaled with physiological saline instead of the lipopolysaccharide solution by inhalation, and then administered with the same volume of physiological saline instead of the test compound solution by inhalation. Three hours after the administration of the test compound, pulmonary cavities of the test animals were washed with physiological saline, and the total infiltrated leucocyte (WBC) number was counted.
Further, after starting the administration of the test compound solution by using an infusion pump, the mice of the drug administration group was inhaled with the lipopolysaccharide solution over 10 minutes by the aforementioned method to induce inflammation. At the same time, the mice of the positive control group were administered with the same volume of physiological saline instead of the test compound, and inflammation was induced by the aforementioned method. For the mice of the negative control group, the same procedure was performed by using physiological saline instead of the test compound, and physiological saline instead of the lipopolysaccharide solution. Three hours after the induction of respiratory tract inflammation, pulmonary cavities of the test animals were washed with physiological saline, and the total infiltrated leucocyte number (WBC) was counted.

[3] = test system: histamine-induced constriction of respiratory tract; experiment: Action of suppressing respiratory tract constriction induced by constriction elicitor (Test Example 12); format: in vivo, Hartley guinea pigs; conditions: 100 μl test compound solution sprayed onto the respiratory tract
trachea = experiment: Tracheal relaxation action (Test Example 11); design: species or system Hartley guinea pigs; conditions: constricted with 10 μM histamine
Method: Hartley guinea pigs (male, 300 to 600 g) were bled to death, and each trachea was extracted. The trachea was first cut on the pair of smooth muscles side along the direction parallel to the smooth muscles, then cut along the cartilage to prepare a sample in the form of a strip having a width of about 2 to 3 mm. After removing […], the sample was suspended with a static load of […] in a Magnus bath containing Krebs-Henseleit solution of 37° C. bubbled with a mixed gas of 95% O2 and 5% CO2. Generated tension was recorded on a recorder via an isometric transducer (FD Pickup TB-612T, Nihon Kohden).
After suspending the sample, and waiting for 1 hour or more until a stable ground line was obtainable, a constriction substance was administered, and then the experiment was started after reproducible constriction was obtainable. During this procedure, the solution in the Magnus bath was changed every about 30 minutes. The sample was constricted with 10 μM histamine, and after the time point that the generated tension was stabilized, a test drug was cumulatively administered at various concentrations to examine change in tension of the sample.

intraocular pressure [4] = experiment: Intraocular pressure reduction enhancing action, combination with jointly-used drug (Test Example 13, rabbits); format: in vivo; conditions: jointly-used drug isopropylunoprostone, dorzolamide hydrochloride, bunazosin hydrochloride or timolol maleate
From the text: For evaluation of intraocular pressure reduction enhancing action of a combination of the compound of the present invention and a jointly-used drug other than latanoprost, rabbits were used as experimental animals, and for evaluation of intraocular pressure reduction enhancing action of a combination of the compound of the present invention and latanoprost, monkeys were used. Naturalization of the rabbits, method for measuring intraocular pressure, and preparation of liquid for eye drop were according to those of Test Example 4. The rabbits were divided into a control group, instillation group for test compound solution alone (single active ingredient preparation group 1), instillation group for jointly-used drug alone (single active ingredient preparation group 2), and instillation group for jointly-used drug and test compound solution (combination use group). After initial values of intraocular pressure of the rabbits in each group were measured, 50 μL of a test compound solution in physiological saline at various concentrations was dropped to the eyes of the rabbits of the single active ingredient preparation group 1 and the combination use group, and physiological saline of the same volume was dropped to the eyes of the rabbits of the control group and the single active ingredient preparation group 2. […] Then, the intraocular pressure was measured in time course for each group. […]

intraocular pressure [5] = experiment: Intraocular pressure reducing action (Test Example 4); format: in vivo, Japanese white rabbit; conditions: 50 μl of aqueous solution dropped to the left eye
Method: A Japanese white rabbit having a body weight of about 2 kg was placed in a positioner and naturalized for one week before the experiment. An ophthalmologic local anesthesant (Benoxil) was administered to the left eye, and then intraocular pressure was measured by using a tonometer (Classic 30, Solan). The initial value of the intraocular pressure was measured, then 50 μl of an aqueous solution of a test compound was dropped to the left eye at various concentrations, and the intraocular pressure was measured with passage of time.

[6] = test system: cerebral hippocampal neurons; experiment: Neurite outgrowth action (Test Example 5); format: cell-based, Sprague-Dawley rats; conditions: neurite length 24 hours after addition
Method: From 18 day-old Sprague-Dawley rats, cerebral hippocampal neurons were prepared according to the method of Neuman et al. (Neuman, H. R. et al., J. Neurosci., 22, pp. 854-862, 2002). The prepared neurons were cultured for 24 hours according to the method of Tanaka et al. (Tanaka, H. et al., J. Cell Biol., 158 (2), pp. 321-329, 2002), then the medium was exchanged with fresh medium, and test medicaments of various concentrations or equivalent amounts of vehicle were added. Twenty-four hours after the addition of the medicaments, neurite length of each neuron was measured for the medicament-added group and the no-addition group, and compared. The neurite length was evaluated according to the method of Neuman et al. (Neuman, H. R. et al., J. Neurosci., 22, pp. 854-862, 2002).

[7] = test system: respiratory tract constriction induced by ovalbumin; experiment: Action of suppressing respiratory tract constriction induced by antigen stimulation (Test Example 3); format: in vivo, Hartley guinea pigs; conditions: for respiratory tract constriction suppression action by inhalation: 0.1% ovalbumin inhalation, test compound by nebulizer inhalation over 5 minutes; for respiratory tract constriction suppressing action: ovalbumin-immunized guinea pigs, test medicament from cannula in hind leg vein, airway resistance for 15 minutes

| Structure (SMILES) | chronic respiratory tract inflammation, total infiltrated white blood cells (WBC) [1] | vasoconstriction inhibitory action (thoracic aorta) | acute respiratory tract inflammation, total infiltrated leucocyte number (WBC) [2] | acute respiratory tract inflammation, total infiltrated leucocyte (WBC) number [2] | suppression of constriction of respiratory tract induced by histamine [3] | suppression of constriction of the trachea sample (trachea) | intraocular pressure reducing action, combination use group versus single active ingredient preparation groups 1 and 2 (intraocular pressure [4]) | intraocular pressure reducing action (intraocular pressure [5]) | neurite outgrowth [6] | respiratory tract constriction suppression action by inhalation [7] | respiratory tract constriction suppressing action [7] |
| --- | --- | --- | --- | --- | --- | --- | --- | --- | --- | --- | --- |
| FC1CNCCC1N1CCc2cncc3cccc1c23 (stereo not shown) | significantly improved the pathological conditions | had vasoconstriction inhibitory action | significantly improved the pathological conditions | significantly improved the pathological conditions | significantly suppressed the constriction of respiratory tract | significantly suppressed constriction of the trachea sample | Enhancement of the intraocular pressure reducing action was also confirmed | significant intraocular pressure reducing action | induced significant neurite outgrowth | significantly improved the constriction of respiratory tract | significant respiratory tract constriction suppressing action |
| CN(CCO)C1CCC(N2CCc3cncc4cccc2c34)CC1 (stereo not shown) | significantly improved the pathological conditions | had vasoconstriction inhibitory action | significantly improved the pathological conditions | significantly improved the pathological conditions | significantly suppressed the constriction of respiratory tract | significantly suppressed constriction of the trachea sample | Enhancement of the intraocular pressure reducing action was also confirmed | significant intraocular pressure reducing action | induced significant neurite outgrowth | significantly improved the constriction of respiratory tract | significant respiratory tract constriction suppressing action |
